Legend:
[1] = molecular target: Somatostatin receptor type 2 (Homo sapiens, UniProt P30874); assay: Binding affinity at human Somatostatin receptor type 2 by [125I][Leu8,D-Trp22,Tyr25]SRIF-28 displacement.
[2] = molecular target: Somatostatin receptor type 1 (Homo sapiens, UniProt P30872); assay: Binding affinity at human Somatostatin receptor type 1 by [125I][Leu8,D-Trp22,Tyr25]SRIF-28 displacement.
[3] = molecular target: Somatostatin receptor type 5 (Homo sapiens, UniProt P35346); assay: Binding affinity at human Somatostatin receptor type 5 by [125I][Leu8,D-Trp22,Tyr25]SRIF-28 displacement.
Sequence of Somatostatin receptor type 5 (P35346 whole entry): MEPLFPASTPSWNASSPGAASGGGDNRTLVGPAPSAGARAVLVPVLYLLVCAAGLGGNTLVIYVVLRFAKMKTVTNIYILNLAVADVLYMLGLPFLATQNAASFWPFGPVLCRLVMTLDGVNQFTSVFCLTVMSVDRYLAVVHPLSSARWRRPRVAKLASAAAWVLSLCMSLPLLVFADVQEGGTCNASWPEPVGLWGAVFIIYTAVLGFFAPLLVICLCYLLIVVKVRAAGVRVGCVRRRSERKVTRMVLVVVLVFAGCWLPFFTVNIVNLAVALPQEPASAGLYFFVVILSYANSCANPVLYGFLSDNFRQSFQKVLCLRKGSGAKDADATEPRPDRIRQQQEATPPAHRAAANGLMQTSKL

[4] = molecular target: Somatostatin receptor type 3 (Homo sapiens, UniProt P32745); assay: Binding affinity at human Somatostatin receptor type 3 by [125I][Leu8,D-Trp22,Tyr25]SRIF-28 displacement.
Sequence of Somatostatin receptor type 3 (P32745 whole entry): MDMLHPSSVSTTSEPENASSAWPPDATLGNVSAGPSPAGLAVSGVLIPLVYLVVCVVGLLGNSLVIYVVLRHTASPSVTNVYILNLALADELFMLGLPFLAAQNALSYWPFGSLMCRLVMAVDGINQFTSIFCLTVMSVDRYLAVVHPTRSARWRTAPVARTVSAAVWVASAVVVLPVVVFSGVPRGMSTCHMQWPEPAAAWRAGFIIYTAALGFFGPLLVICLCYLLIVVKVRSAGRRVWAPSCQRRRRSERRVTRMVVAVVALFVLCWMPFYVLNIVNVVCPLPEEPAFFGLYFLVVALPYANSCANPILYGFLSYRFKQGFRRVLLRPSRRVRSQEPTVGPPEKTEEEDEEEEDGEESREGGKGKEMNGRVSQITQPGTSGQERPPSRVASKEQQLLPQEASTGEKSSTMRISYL

[5] = molecular target: Somatostatin receptor type 4 (Homo sapiens, UniProt P31391); assay: Binding affinity at human Somatostatin receptor type 4 by [125I][Leu8,D-Trp22,Tyr25]SRIF-28 displacement.
Sequence of Somatostatin receptor type 4 (P31391 whole entry): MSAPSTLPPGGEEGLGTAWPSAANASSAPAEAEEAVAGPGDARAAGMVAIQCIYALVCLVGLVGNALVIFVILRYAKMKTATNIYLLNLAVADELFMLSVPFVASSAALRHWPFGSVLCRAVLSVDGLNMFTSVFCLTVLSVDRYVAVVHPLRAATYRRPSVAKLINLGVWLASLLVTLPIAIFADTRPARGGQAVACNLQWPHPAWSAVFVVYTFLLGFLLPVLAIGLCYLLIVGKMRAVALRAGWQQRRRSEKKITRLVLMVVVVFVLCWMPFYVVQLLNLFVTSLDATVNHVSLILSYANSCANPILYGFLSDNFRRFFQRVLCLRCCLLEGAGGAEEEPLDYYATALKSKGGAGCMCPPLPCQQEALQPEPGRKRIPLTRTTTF

Sequence of Somatostatin receptor type 1 (P30872 whole entry): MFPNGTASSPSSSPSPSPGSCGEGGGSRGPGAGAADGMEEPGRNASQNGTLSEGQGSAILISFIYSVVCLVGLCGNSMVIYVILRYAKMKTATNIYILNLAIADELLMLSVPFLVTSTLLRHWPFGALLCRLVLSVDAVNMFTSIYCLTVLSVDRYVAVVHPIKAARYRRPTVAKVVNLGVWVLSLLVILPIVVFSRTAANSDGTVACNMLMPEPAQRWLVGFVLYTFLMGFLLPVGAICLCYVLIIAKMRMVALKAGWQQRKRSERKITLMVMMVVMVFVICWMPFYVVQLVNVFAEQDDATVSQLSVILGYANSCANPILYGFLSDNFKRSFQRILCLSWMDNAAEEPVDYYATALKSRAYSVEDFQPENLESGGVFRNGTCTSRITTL
Sequence of Somatostatin receptor type 2 (P30874 whole entry): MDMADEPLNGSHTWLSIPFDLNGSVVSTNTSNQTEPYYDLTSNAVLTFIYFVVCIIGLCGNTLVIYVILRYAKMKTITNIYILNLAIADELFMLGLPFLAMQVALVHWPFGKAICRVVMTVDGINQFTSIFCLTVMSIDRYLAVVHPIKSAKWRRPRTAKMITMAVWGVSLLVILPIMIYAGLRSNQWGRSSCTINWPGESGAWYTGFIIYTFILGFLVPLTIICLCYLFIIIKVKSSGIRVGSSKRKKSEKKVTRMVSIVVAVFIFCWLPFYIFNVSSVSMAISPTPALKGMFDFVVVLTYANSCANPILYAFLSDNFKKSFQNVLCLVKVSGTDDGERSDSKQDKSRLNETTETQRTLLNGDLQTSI

IC50 [1] [µM] | IC50 [2] [µM] | IC50 [3] [µM] | IC50 [4] [µM] | IC50 [5] [µM] | SMILES
0.016 | > 1 | 0.047 | 0.012 | 0.0092 | C[C@H](c1ccc2ccccc2c1)[C@@H]1NC(=O)[C@H](Cc2ccccc2)NC(=O)[C@@H](Cc2ccccc2)NC(=O)[C@H](N)CSSC[C@@H](C(=O)O)NC(=O)[C@H](Cc2ccc(O)cc2)NC(=O)[C@@H]([C@@H](C)O)NC(=O)[C@H](CCCCN)NC1=O
 |  |  |  | 0.00053 | C[C@@H](O)[C@@H]1NC(=O)[C@H](CCCCN)NC(=O)[C@@H]([C@@H](C)c2ccc3ccccc3c2)NC(=O)[C@H](Cc2ccc(O)cc2)NC(=O)[C@H](Cc2ccccc2)NC(=O)[C@H](N)CSSC[C@@H](C(=O)O)NC(=O)[C@H](Cc2ccccc2)NC1=O
0.474 | > 1 | > 1 | 0.595 | 0.061 | C[C@H](c1ccc2ccccc2c1)[C@@H]1NC(=O)[C@H](Cc2ccc(N)cc2)NC(=O)[C@H](Cc2ccccc2)NC(=O)[C@H](NC(=O)[C@@H](N)Cc2ccc(O)cc2)CSSC[C@@H](C(=O)O)NC(=O)[C@H](Cc2ccccc2)NC(=O)[C@H]([C@@H](C)O)NC(=O)[C@H](CCCCN)NC1=O
0.204 | > 1 | 0.127 | 0.171 | 0.0098 | C[C@@H](O)[C@@H]1NC(=O)[C@H](CCCCN)NC(=O)[C@@H]([C@@H](C)c2ccc3ccccc3c2)NC(=O)[C@H](Cc2ccc(N)cc2)NC(=O)[C@H](Cc2ccccc2)NC(=O)[C@H](NC(=O)[C@@H](N)Cc2ccc(O)cc2)CSSC[C@@H](C(=O)O)NC(=O)[C@H](Cc2ccccc2)NC1=O
0.102 | > 1 | 0.101 | 0.186 | 0.0087 | C[C@H](c1ccc2ccccc2c1)[C@@H]1NC(=O)[C@H](Cc2ccc(N)cc2)NC(=O)[C@@H](Cc2ccccc2)NC(=O)[C@H](N)CSSC[C@@H](C(=O)O)NC(=O)[C@H](Cc2ccccc2)NC(=O)[C@@H]([C@@H](C)O)NC(=O)[C@H](CCCCN)NC1=O
> 10 |  |  | > 10 |  | COC(=O)[C@H](CCCN=C(N)N)NC(=O)CCCc1c(-c2ccccc2)[nH]c2c(F)cc(F)cc12
0.11 | > 1 | 0.147 | 0.6 | 0.0021 | C[C@@H](O)[C@@H]1NC(=O)[C@H](CCCCN)NC(=O)[C@H]([C@@H](C)c2ccc3ccccc3c2)NC(=O)[C@H](Cc2ccc(O)cc2)NC(=O)[C@H](Cc2ccccc2)NC(=O)[C@@H](N)CSSC[C@@H](C(=O)O)NC(=O)[C@H](Cc2ccccc2)NC1=O
0.575 | > 10 | > 10 | > 1 | 0.0069 | C[C@@H](O)[C@H]1NC(=O)[C@H](CCCCN)NC(=O)[C@@H]([C@@H](C)c2ccc3ccccc3c2)NC(=O)[C@H](Cc2ccc(N)cc2)NC(=O)[C@@H](Cc2ccccc2)NC(=O)[C@H](N)CSSC[C@@H](C(=O)O)NC(=O)[C@H](Cc2ccccc2)NC1=O
> 10 | > 10 | > 10 | > 1 | > 1 | C[C@H](c1ccc2ccccc2c1)[C@H]1NC(=O)[C@H](Cc2ccc(O)cc2)NC(=O)[C@@H](Cc2ccccc2)NC(=O)[C@H](N)CSSC[C@@H](C(=O)O)NC(=O)[C@H](Cc2ccccc2)NC(=O)[C@@H]([C@@H](C)O)NC(=O)[C@H](CCCCN)NC1=O
0.357 | > 1 | 0.7 | 0.325 | 0.0118 | C[C@@H](O)[C@H]1NC(=O)[C@H](CCCCN)NC(=O)[C@@H]([C@@H](C)c2ccc3ccccc3c2)NC(=O)[C@H](Cc2ccccc2)NC(=O)[C@@H](Cc2ccccc2)NC(=O)[C@H](N)CSSC[C@@H](C(=O)O)NC(=O)[C@H](Cc2ccc(O)cc2)NC1=O
0.03 | 0.41 | 0.0175 | 0.018 | 0.0022 | C[C@H](c1ccc2ccccc2c1)[C@@H]1NC(=O)[C@H](Cc2ccc(O)cc2)NC(=O)[C@H](Cc2ccccc2)NC(=O)[C@@H](N)CSSC[C@@H](C(=O)O)NC(=O)[C@H](Cc2ccccc2)NC(=O)[C@H]([C@@H](C)O)NC(=O)[C@H](CCCCN)NC1=O
> 1 | > 1 | > 1 | > 10 | 0.105 | C[C@@H](O)[C@@H]1NC(=O)[C@H](CCCCN)NC(=O)[C@@H]([C@@H](C)c2ccc3ccccc3c2)NC(=O)[C@H](Cc2ccc(O)cc2)NC(=O)[C@H](Cc2ccccc2)NC(=O)[C@@H](N)CSSC[C@@H](C(=O)O)NC(=O)[C@H](Cc2ccccc2)NC1=O

From ChEMBL document CHEMBL1145934, “Novel sst(4)-selective somatostatin (SRIF) agonists. 2. Analogues with beta-methyl-3-(2-naphthyl)alanine substitutions at position 8” (J Med Chem, 2003)
